The values that follow come from ChEMBL document CHEMBL1135848, “Novel substituted 4-aminomethylpiperidines as potent and selective human beta3-agonists. Part 2: arylethanolaminomethylpiperidines” (Bioorg Med Chem Lett, 2002).

Test [1] addresses T1, Beta-2 adrenergic receptor (Homo sapiens, UniProt P07550). The experiment in a line: Beta-2 adrenergic receptor agonist activity as increased cAMP levels in CHO cells expressing human Beta-2-adrenoceptor. The format is functional, cell-based. A general note: cAMP levels reflect the balance of adenylyl cyclase and phosphodiesterase activity.
Test [2] has as its target T2, Beta-1 adrenergic receptor (Homo sapiens, UniProt P08588). Briefly: Beta-1 adrenergic receptor agonist activity as increased cAMP levels in CHO cells expressing human Beta-1-adrenoceptor. Type of test: functional, cell-based.
Target sequence in this assay (P08588 whole entry): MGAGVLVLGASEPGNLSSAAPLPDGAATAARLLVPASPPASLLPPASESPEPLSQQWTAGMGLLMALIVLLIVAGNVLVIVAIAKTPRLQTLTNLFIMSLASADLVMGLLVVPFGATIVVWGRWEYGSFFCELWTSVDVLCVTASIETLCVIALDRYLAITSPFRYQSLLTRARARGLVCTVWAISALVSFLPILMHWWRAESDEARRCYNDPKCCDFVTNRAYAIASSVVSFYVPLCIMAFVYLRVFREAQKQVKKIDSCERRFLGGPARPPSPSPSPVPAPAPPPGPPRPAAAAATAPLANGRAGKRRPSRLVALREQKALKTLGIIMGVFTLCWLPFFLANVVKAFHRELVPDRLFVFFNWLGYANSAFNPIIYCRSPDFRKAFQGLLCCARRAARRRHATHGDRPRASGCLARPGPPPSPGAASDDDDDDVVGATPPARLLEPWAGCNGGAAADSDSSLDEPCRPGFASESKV
For test [3], the target named is T3, Beta-3 adrenergic receptor (Homo sapiens, UniProt P13945). Briefly: Human Beta-3 adrenergic receptor intrinsic activity (IA) as maximal response relative to isoproterenol at […]. Type of test: functional.
Target sequence in this assay (P13945 whole entry, looked up): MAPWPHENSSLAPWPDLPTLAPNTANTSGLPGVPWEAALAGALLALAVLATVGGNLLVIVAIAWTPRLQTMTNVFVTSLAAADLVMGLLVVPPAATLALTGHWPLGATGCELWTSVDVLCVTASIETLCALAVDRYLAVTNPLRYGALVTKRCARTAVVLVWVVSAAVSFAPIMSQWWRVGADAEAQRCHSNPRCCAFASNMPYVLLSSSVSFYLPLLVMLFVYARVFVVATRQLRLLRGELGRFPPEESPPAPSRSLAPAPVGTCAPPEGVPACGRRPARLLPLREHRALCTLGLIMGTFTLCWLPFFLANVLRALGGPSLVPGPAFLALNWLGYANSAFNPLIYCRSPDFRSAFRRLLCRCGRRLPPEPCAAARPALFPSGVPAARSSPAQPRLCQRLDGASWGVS
Test [4] concerns the target T2, Beta-1 adrenergic receptor. The experiment in a line: (§1) Binding affinity of compound against Beta-1 adrenergic receptor was determined.
Target sequence in this assay (P08588 whole entry): as the sequence (P08588 whole entry) above
In test [5] the target is T1, Beta-2 adrenergic receptor. The experiment in a line: Binding affinity of compound against Beta-2 adrenergic receptor was determined.
Test [6] has as its target T3, Beta-3 adrenergic receptor. The experiment in a line: Beta-3 adrenergic receptor agonist activity as increased cAMP levels in CHO cells expressing human Beta-3-adrenoceptor. Type of test: functional, cell-based.
Target sequence in this assay (P13945 whole entry): as the sequence (P13945 whole entry, looked up) above
Test [7] deals with T2, Beta-1 adrenergic receptor. Briefly: Human Beta-1 adrenergic receptor determined as the maximal response divided by the maximal response of isoproterenol at […]. The format is functional.
Target sequence in this assay (P08588 whole entry, looked up): as the sequence (P08588 whole entry) above
Test [8] concerns the target T1, Beta-2 adrenergic receptor. The experiment in a line: Beta-2 adrenergic receptor agonist activity was determined by a measurement of increased cAMP levels in CHO cells expressing human Beta-2 adrenergic receptor. Type of test: functional, cell-based.
Test [9] deals with T2, Beta-1 adrenergic receptor. The test is described as §1. The format is functional.
Target sequence in this assay (P08588 whole entry): as above
For test [10], the target named is T3, Beta-3 adrenergic receptor. Briefly: Evaluated in vivo using transgenic mice containing the human Beta-3-Adrenoceptor and increase in themogenesis was determined. The format is functional, organism-based. Particulars: Mus musculus; call rule not given here.
Target sequence in this assay (P13945 whole entry, looked up): as the sequence (P13945 whole entry, looked up) above
The target of test [11] is T3, Beta-3 adrenergic receptor. The experiment in a line: Beta-3 adrenergic receptor agonist activity was determined by a measurement of increased cAMP levels in CHO cells expressing human Beta-3-adrenoceptor; IA is Inactive. Type of test: functional, cell-based.
Target sequence in this assay (P13945 whole entry): as the sequence (P13945 whole entry, looked up) above

Structures are written as SMILES.

T1 sequence (P07550 whole entry): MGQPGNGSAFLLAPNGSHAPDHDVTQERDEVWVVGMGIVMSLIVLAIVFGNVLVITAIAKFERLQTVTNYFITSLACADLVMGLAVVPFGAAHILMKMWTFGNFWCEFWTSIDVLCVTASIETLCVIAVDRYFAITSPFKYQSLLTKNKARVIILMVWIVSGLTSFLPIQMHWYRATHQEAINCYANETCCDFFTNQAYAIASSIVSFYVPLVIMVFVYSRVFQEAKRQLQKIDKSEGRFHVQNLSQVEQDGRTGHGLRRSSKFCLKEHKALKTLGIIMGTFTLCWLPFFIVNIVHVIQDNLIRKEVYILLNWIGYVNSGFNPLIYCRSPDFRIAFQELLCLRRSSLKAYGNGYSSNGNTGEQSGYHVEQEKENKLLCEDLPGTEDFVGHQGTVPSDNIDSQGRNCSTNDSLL

For `CS(=O)(=O)Nc1cc([C@@H](O)CNCC2CCN(S(=O)(=O)c3ccc(-n4ccc5c(C(=O)O)cccc54)cc3)CC2)ccc1O`, the EC50 in test [1] came out at 60 nM; in test [2] it was 50 nM. This molecule also had an Intrinsic activity in test [3] of 1.

Take `CS(=O)(=O)Nc1cc([C@@H](O)CNCC2CCN(S(=O)(=O)c3ccc(-n4cc(CC(=O)O)c5ccccc54)cc3)CC2)ccc1O`: the EC50 in [1] and in [2] was 30 nM in each case. The results for the Ki in [4] and in test [5] were 240 nM and 180 nM, respectively. In test [3], this molecule had an Intrinsic activity of 0.96.

For `CS(=O)(=O)Nc1cc([C@@H](O)CNCC2CCN(c3ccc(C(=O)N[C@@H](Cc4ccccc4)C(=O)O)cc3)CC2)ccc1O`, the EC50 was found to be 20000 nM in test [1], 520 nM in test [2] and 31 nM in test [6]. Moreover, the Intrinsic activity in test [3] is 1.2; in [7] it was 0.6.

Turning to `CS(=O)(=O)Nc1cc([C@@H](O)CNCC2CCN(S(=O)(=O)c3ccc(-n4cc(C(=O)O)cn4)cc3)CC2)ccc1O`, the EC50 in test [1] came out at 10 nM; in [2], 1000 nM. This molecule displayed an Intrinsic activity in [3] of 0.93.

`CS(=O)(=O)Nc1cc([C@@H](O)CNCC2CCN(c3ccc(C(=O)N[C@@H](CC(=O)O)C(=O)O)cc3)CC2)ccc1O`: the EC50 came out at 5 nM in test [1] and 580 nM in test [2]. The molecule further displayed an Intrinsic activity in [3] of 0.95.

Turning to `CS(=O)(=O)Nc1cc([C@@H](O)CNCC2CCN(S(=O)(=O)c3ccc(NC(=O)NCc4cc(F)ccc4F)cc3)CC2)ccc1O`, the EC50 in test [2] stood at 3160 nM; in test [8], 30 nM; in test [6], 5 nM. In [3], this molecule gave an Intrinsic activity of 0.93.

In the case of `CCCCCCCCC(=O)Nc1ccc(S(=O)(=O)N2CCC(CNC[C@H](O)c3ccc(O)c(NS(C)(=O)=O)c3)CC2)cc1`, the values for the EC50 in test [1], in test [2] and in test [6] were 30 nM, 730 nM and 6 nM, respectively. Moreover, the results for the Ki in [9] and in [5] were 6600 nM and 140 nM, respectively. Besides, the Intrinsic activity in [3] turned out to be 1. In [10], this molecule had an Increase of 10%.

On to `CS(=O)(=O)Nc1cc([C@@H](O)CNCC2CCN(S(=O)(=O)c3ccc(NC(=O)N[C@@H](Cc4ccccc4)C(=O)O)cc3)CC2)ccc1O`, for which the values for the EC50 in [1], in [2] and in [6] were 20 nM, 520 nM and 31 nM, respectively. The molecule also displayed an Intrinsic activity in test [3] of 1.2.

As to `CCCCCCCCNC(=O)Nc1ccc(S(=O)(=O)N2CCC(CNC[C@H](O)c3cc(NS(C)(=O)=O)c4[nH]ccc4c3)CC2)cc1`, the EC50 result in [11] is “Not Active”.

As to `CC(C)N(Cc1cc(F)ccc1F)C(=O)Nc1ccc(S(=O)(=O)N2CCC(CNC[C@H](O)c3ccc(O)c(NS(C)(=O)=O)c3)CC2)cc1`, the EC50 in [1] stood at 12 nM; in test [2], 6300 nM; in [6], 27 nM. The same molecule had an Intrinsic activity in [3] of 0.93.

Take `CCCCCCCCNC(=O)Nc1ccc(S(=O)(=O)N2CCC(CNC[C@H](O)c3ccc4[nH]ccc4c3)CC2)cc1`: the EC50 entry in [11] was “Not Active”.

With `CC(C)C[C@H](NC(=O)c1ccc(N2CCC(CNC[C@H](O)c3ccc(O)c(NS(C)(=O)=O)c3)CC2)cc1)C(=O)O`, the 50% effective concentration (EC50) came to 1000 nM in test [1] and 1860 nM in test [2]. In test [3], this molecule returned an Intrinsic activity of 1.

What is called EC50 is the concentration that produces a half-maximal response. For orientation: Ki means a measure of affinity in units of concentration, obtained from inhibition or displacement.
